The numbers were not newly measured in patent US10052295B2, “Method, composition and package for bowel cleansing” (priority 2011, dated 2018), which cites them from elsewhere.

`OC[C@@H](O)[C@@H](O)CO` [erythritol]: the GI symptoms entry (doses as high as 50 mg (Storey 2006)) is on record as “not reported to produce any significant GI symptoms”.

With `OC[C@@H](O)[C@H](O)[C@@H](O)CO` [xylitol], the “toxic effects in humans” value (doses as high as 50 grams per day for over two years (Makinen 1976)) is on record as “no toxic effects”. Moreover, the watery feces entry (doses over 35 grams, compared with erythritol (Storey 2006)) is listed as “significantly more watery feces”.
